Values joined by “and” are separate entries in the source; they are usually repeats but may differ in a detail not shown here. Equal entries are not always repeated.
Assay: parallel artificial membrane permeability assay
Format: in vitro ADME
Details: 100 μM, phosphate buffer pH 6.4, 17 h, 37 °C, 150 rpm, triplicates

Row | SMILES | PAMPA −LogPe
1 | CC(C)C[C@@H]1NC(=O)[C@H](C)NC(=O)[C@H](Cc2ccccc2)NCc2ccc([nH]2)CNC1=O [14a, (5S,8S,11S)-11-Benzyl-5-isobutyl-8-methyl-1^1H-3,6,9,12-tetraaza-1(2,5)-pyrrolacyclotridecaphane-4,7,10-trione, 1H-Benzo[d][1,2,3]triazol-1-ol] | 7.72
2 | CC(C)C[C@@H]1NC(=O)CN(C)C(=O)[C@H](Cc2ccccc2)NCc2ccc([nH]2)CNC1=O [14b, (5S,11S)-11-Benzyl-5-isobutyl-9-methyl-1^1H-3,6,9,12-tetraaza-1(2,5)-pyrrolacyclotridecaphane-4,7,10-trione] | 5.89 and 5.89 ± 0.08
3 | CC(C)C[C@H]1C(=O)NCc2ccc([nH]2)CN[C@@H](Cc2ccccc2)C(=O)N[C@@H](C)C(=O)N1C [14c, (5S,8S,11S)-11-Benzyl-5-isobutyl-6,8-dimethyl-1^1H-3,6,9,12-tetraaza-1(2,5)-pyrrolacyclotridecaphane-4,7,10-trione, 1H-Benzo[d][1,2,3]triazol-1-ol] | 5.12
4 | CC(C)C[C@@H]1NC(=O)[C@H](C)N(C)C(=O)[C@H](Cc2ccccc2)NCc2ccc([nH]2)CNC1=O [14d, (5S,8S,11S)-11-Benzyl-5-isobutyl-8,9-dimethyl-1^1H-3,6,9,12-tetraaza-1(2,5)-pyrrolacyclotridecaphane-4,7,10-trione] | 5.01
5 | CC(C)C[C@@H]1NC(=O)[C@H](C)NC(=O)[C@H](Cc2ccccc2)N(C)Cc2ccc([nH]2)CNC1=O [14e, (5S,8S,11S)-11-Benzyl-5-isobutyl-8,12-dimethyl-1^1H-3,6,9,12-tetraaza-1(2,5)-pyrrolacyclotridecaphane-4,7,10-trione, 1H-Benzo[d][1,2,3]triazol-1-ol] | 5.11
6 | CC(C)C[C@@H]1NC(=O)CN(C)C(=O)[C@H](Cc2ccccc2)NCc2ccc(n2C)CNC1=O [15b, (5S,11S)-11-Benzyl-5-isobutyl-1^1,9-dimethyl-1^1H-3,6,9,12-tetraaza-1(2,5)-pyrrolacyclotridecaphane-4,7,10-trione] | 5.93
7 | CC(C)C[C@@H]1NC(=O)[C@H](C)N(C)C(=O)[C@H](Cc2ccccc2)NCc2ccc(n2C)CNC1=O [15d, (5S,8S,11S)-11-Benzyl-5-isobutyl-1^1,8,9-trimethyl-1^1H-3,6,9,12-tetraaza-1(2,5)-pyrrolacyclotridecaphane-4,7,10-trione] | 6.30
8 | CC(C)C[C@@H]1NC(=O)CN(C)C(=O)[C@H](Cc2ccccc2)NCc2cc(c[nH]2)CNC1=O [16b, (5S,11S,Z)-11-Benzyl-5-isobutyl-9-dimethyl-1^1H-3,6,9,12-tetraaza-1(2,4)-pyrrolacyclotridecaphane-4,7,10-trione] | 6.76
9 | CC(C)C[C@@H]1NC(=O)[C@H](C)N(C)C(=O)[C@H](Cc2ccccc2)NCc2cc(c[nH]2)CNC1=O [16d, (5S,8S,11S,Z)-11-Benzyl-5-isobutyl-8,9-dimethyl-1^1H-3,6,9,12-tetraaza-1(2,4)-pyrrolacyclotridecaphane-4,7,10-trione] | 7.53
10 | CC(C)C[C@@H]1NC(=O)[C@H](C)N(C)C(=O)[C@H](Cc2ccccc2)NCc2cc(cn2C)CNC1=O [17d, (5S,8S,11S,Z)-11-Benzyl-5-isobutyl-1^1,8,9-trimethyl-1^1H-3,6,9,12-tetraaza-1(2,4)-pyrrolacyclotridecaphane-4,7,10-trione] | 6.61 ± 0.07
11 | CC(C)C[C@@H]1NC(=O)CN(C)C(=O)[C@H](Cc2ccccc2)NCC2=CC=C(CNC1=O)O2 [18b, (5S,11S)-11-Benzyl-5-isobutyl-9-methyl-3,6,9,12-tetraaza-1(2,5)-furanacyclotridecaphane-4,7,10-trione] | 5.88 and 5.88 ± 0.04
12 | CC(C)C[C@@H]1NC(=O)[C@H](C)NC(=O)[C@H](Cc2ccccc2)NCC2=CC=C(CN(C)C1=O)O2 [19a, (5S,8S,11S)-11-Benzyl-5-isobutyl-3,8-dimethyl-3,6,9,12-tetraaza-1(2,5)-furanacyclotridecaphane-4,7,10-trione] | 5.71 and 5.71 ± 0.03
